Test results taken from the NIST ThermoML archive (doi:10.1021/acs.jced.7b00106).
Values joined by “and” are separate entries in the source; they are usually repeats but may differ in a detail not shown here. Equal entries are not always repeated.

Settings: Fluid (supercritical or subcritical phases), Hot wire method

FC(F)(F)/C=C/Cl [(E)-1-chloro-3,3,3-trifluoroprop-1-ene]
Settings	thermal conductivity
452.54 K, 1672 kPa	0.02352 W/m/K
452.58 K, 8954 kPa	0.0518 W/m/K
452.58 K, 8958 kPa	0.05186 W/m/K
452.61 K, 12577 kPa	0.05553 W/m/K
452.61 K, 12585 kPa	0.05555 W/m/K
452.61 K, 18524 kPa	0.06031 W/m/K
452.63 K, 18535 kPa	0.06055 W/m/K
452.65 K, 5576 kPa	0.04794 W/m/K
452.65 K, 5578 kPa	0.04801 W/m/K
452.67 K, 7732 kPa	0.0504 W/m/K
452.67 K, 7733 kPa	0.05035 W/m/K
452.68 K, 10507 kPa	0.05353 W/m/K
452.68 K, 10512 kPa	0.05353 W/m/K
452.69 K, 6081 kPa	0.04841 W/m/K
452.69 K, 7300 kPa	0.05001 W/m/K
452.69 K, 7301 kPa	0.04996 W/m/K
452.69 K, 15244 kPa	0.05785 W/m/K
452.69 K, 22569 kPa	0.06311 W/m/K
452.69 K, 22574 kPa	0.06307 W/m/K
452.7 K, 6080 kPa	0.04844 W/m/K
452.71 K, 6780 kPa	0.04921 W/m/K
452.72 K, 6782 kPa	0.04926 W/m/K
452.75 K, 990 kPa	0.02344 W/m/K
452.76 K, 988 kPa	0.02344 W/m/K
452.77 K, 8956 kPa	0.05187 W/m/K and 0.05189 W/m/K
452.79 K, 18524 kPa	0.0603 W/m/K
452.79 K, 18533 kPa	0.06034 W/m/K
452.8 K, 12582 kPa	0.05559 W/m/K
452.86 K, 7730 kPa	0.05046 W/m/K
452.86 K, 7733 kPa	0.05047 W/m/K
452.87 K, 10511 kPa	0.05358 W/m/K
452.87 K, 22562 kPa	0.06294 W/m/K
452.88 K, 10507 kPa	0.05361 W/m/K
452.88 K, 15241 kPa	0.05786 W/m/K
452.88 K, 15242 kPa	0.05782 W/m/K
452.88 K, 22559 kPa	0.06307 W/m/K
452.89 K, 6080 kPa	0.04865 W/m/K
452.89 K, 6081 kPa	0.04866 W/m/K
452.9 K, 7299 kPa	0.0501 W/m/K
452.9 K, 7305 kPa	0.05013 W/m/K
452.91 K, 6780 kPa	0.04939 W/m/K
452.91 K, 6781 kPa	0.04936 W/m/K
452.96 K, 8959 kPa	0.05193 W/m/K
452.97 K, 8955 kPa	0.0519 W/m/K
452.98 K, 18519 kPa	0.06033 W/m/K
452.99 K, 12573 kPa	0.05553 W/m/K
452.99 K, 12587 kPa	0.05557 W/m/K
453.06 K, 7731 kPa	0.05059 W/m/K
453.06 K, 22554 kPa	0.06303 W/m/K
453.06 K, 22568 kPa	0.06306 W/m/K
453.07 K, 7733 kPa	0.05056 W/m/K
453.07 K, 10506 kPa	0.05359 W/m/K
453.07 K, 15242 kPa	0.05784 W/m/K
453.08 K, 10511 kPa	0.05377 W/m/K
453.08 K, 15250 kPa	0.05787 W/m/K
453.1 K, 6079 kPa	0.04859 W/m/K
453.12 K, 6779 kPa	0.0495 W/m/K
453.12 K, 6780 kPa	0.04953 W/m/K
453.17 K, 18517 kPa	0.06031 W/m/K
453.17 K, 18518 kPa	0.06033 W/m/K
453.18 K, 8956 kPa	0.05196 W/m/K
453.18 K, 8959 kPa	0.05204 W/m/K
453.2 K, 12578 kPa	0.05564 W/m/K
453.2 K, 12584 kPa	0.05564 W/m/K
453.27 K, 7731 kPa	0.05062 W/m/K
453.27 K, 10508 kPa	0.05365 W/m/K
453.28 K, 7728 kPa	0.05065 W/m/K
453.28 K, 10506 kPa	0.05366 W/m/K
453.28 K, 15236 kPa	0.05778 W/m/K
453.28 K, 15246 kPa	0.05788 W/m/K
453.33 K, 6776 kPa	0.0497 W/m/K
453.33 K, 6780 kPa	0.04971 W/m/K
453.39 K, 8959 kPa	0.05209 W/m/K
